Assay results reported in article PMC3124649 (Journal of medicinal chemistry, 2011).

Assays:
[1] = system: HBV replication (extracellular virion HBV DNA); test: HBV virion; format: cell-based, hepatitis B virus; settings: for activity against HBV (in words): 2.2.15 cells
HCV = settings: cited from earlier work
[2] = cited from earlier work
[3] = cited from earlier work; remark: listed apart in the source
anaerobic bacteria [4] = settings: cited from earlier work
anaerobic bacteria [5] = test: Activity against anaerobes
CYP isozymes = test: CYP inhibition panel; format: in vitro ADME
[6] = administered after food; cited from earlier work
[7] = Stability in human blood and plasma; format: in vitro ADME; settings: one hour incubation
Dog PK study = format: in vivo
Rat PK study = format: in vivo
Plasma protein binding = format: in vitro ADME; settings: ADME/Tox studies

| SMILES | activity against HBV (in words) [1] | further results |
| --- | --- | --- |
| CS(=O)(=O)c1csc(NC(=O)c2ccccc2O)n1 [Compound 24] | inactive | inhibition of HCV (HCV): potent inhibitor |
| O=C(Nc1ccc([N+](=O)[O-])cc1Cl)c1cc(Cl)ccc1O [Niclosamide, reference compound] | inactive | aqueous solubility [2]: poor; EC50 ([1]; Hepatitis B virus, read-out: EC50 (VIR)): > 10 µM |
| O=C(Nc1cc(C(F)(F)F)ccc1Cl)c1ccccc1O [Compound 35] | moderate activity |  |
| Cc1cccc(C(=O)Nc2ncc(Cl)s2)c1O [Compound 11] | essentially inactive |  |
| CC(=O)Oc1ccccc1C(=O)Nc1ccc(Cl)cc1 [Compound 30] | low potency |  |
| O=C(Nc1ccc([N+](=O)[O-])cc1)c1ccccc1O [Compound 34] | inactive |  |
| Cc1cc([N+](=O)[O-])c(Cl)cc1NC(=O)c1ccccc1O [Compound 37] | good activity |  |
| O=C(Nc1ncc([N+](=O)[O-])s1)c1ccccc1O[C@@H]1O[C@H](C(=O)O)[C@@H](O)[C@H](O)[C@H]1O [Compound 58] |  | antiviral activity [3]: essentially devoid of antiviral activity; activity against anaerobic bacteria (anaerobic bacteria [4]): moderate activity |
| O=C(Nc1ccc(Cl)cc1)c1ccccc1O [Compound 31] | lack of activity |  |
| O=C(Nc1ncc(Cl)s1)c1ccccc1O [Compound 3, 2-Hydroxybenzoyl-N-(5-chlorothiazol-2-yl) amide] |  | activity against anaerobes (anaerobic bacteria [5]): inactive; drug-drug interactions (CYP isozymes): nor does it show unfavourable drug-drug interactions; effects against a panel of CYPs (CYP isozymes): no adverse effects |
| CC(=O)Oc1ccccc1C(=O)Nc1ccc(Br)cc1 [Compound 32] | useful activity |  |
| CC(C)c1cnc(NC(=O)c2ccccc2O)s1 [Compound 17] | inactive |  |
| CC(=O)Nc1cnc(NC(=O)c2ccccc2O)s1 [Compound 23, 2-Hydroxybenzoyl-N-(5-acetamidothiazol-2-yl)amide] | inactive |  |
| CC(=O)Oc1ccccc1C(=O)Nc1ncc([N+](=O)[O-])s1 [Compound 1, nitazoxanide] |  | oral bioavailability [6]: about 50% |
| O=C(Nc1ncc(C(F)(F)F)s1)c1ccccc1O [Compound 28] | slight activity |  |
| O=C(Nc1nc(-c2ccccc2)cs1)c1ccccc1O [Compound 19] | modest level of activity |  |
| CSc1cnc(NC(=O)c2ccccc2OC(C)=O)s1 [Compound 44] | inactive |  |
| Cc1ccc(O)c(C(=O)Nc2ncc(Cl)s2)c1 [Compound 12, 2-Hydroxy-5-methylbenzoyl-N-(5-chlorothiazol-2-yl) amide] |  | stability in human blood and plasma [7]: complete stability; oral absorption (Dog PK study): not orally absorbed; oral absorption (Rat PK study): not orally absorbed; protein bound (Plasma protein binding): > 99%; inhibition of CYP isozymes (CYP isozymes; 14 different CYP isozymes): not an inhibitor |
| O=C(Nc1nccs1)c1ccccc1O [Compound 16] | complete loss of HBV activity |  |
| CS(=O)(=O)c1cnc(NC(=O)c2ccccc2O)s1 [Compound 25] | inactive |  |
| N#Cc1cnc(NC(=O)c2ccccc2O)s1 [Compound 26] | slight activity |  |
| CC(=O)Oc1ccccc1C(=O)Nc1cc(C(F)(F)F)cc(C(F)(F)F)c1 [Compound 36] | moderate activity |  |
| O=C(Nc1ncc(-c2ccc(Cl)cc2)s1)c1ccccc1O [Compound 18] | inactive |  |
| COC(=O)c1cnc(NC(=O)c2ccccc2O)s1 [Compound 27] | inactive |  |
| CC(=O)Oc1ccccc1C(=O)Nc1ccc(I)cc1 [Compound 33] | useful activity |  |
